Entries after “also recorded” stand apart in the source; their conditions may differ.
Columns and labels:
aged mice [1] = assay: Nanostring transcriptomics of peritoneal macrophages from treated mice; type: in vivo, mouse
Description: For gene expression analysis on the NanoString nCounter system, 100 ng of RNA was hybridized to a multiplexed nucleotide probe pool for 16 hours at 65° C. Enriched targets were purified and quantified using the nCounter MAX Analysis System. NanoString data analysis was performed by Canopy Biosciences (St. Louis, Mo.). Raw counts were normalized using the geometric mean of both positive control probes (technical variability) and housekeeping gene probes (assay input variability). Normalized data was uploaded to the interactive analysis platform Rosalind (https://rosalind.onramp.bio/), with a HyperScale architecture developed by OnRamp BioInformatics, Inc. (San Diego, Calif.) Read Distribution percentages, violin plots, identity heatmaps, and sample MDS plots were generated as part of the QC step. The limma R library1 was used to calculate fold changes and p-values and perform optional covariate correction. Clustering of genes for the final heatmap of differentially expressed genes was done using the PAM (Partitioning Around Medoids) method using the fpc R library2 that takes into consideration the direction and type of all signals on a pathway, the position, role and type of every gene, etc. Functional enrichment analysis of pathways, gene ontology, domain structure and other ontologies was performed using HOMER3. Several database sources were referenced for enrichment analysis, including Interpro4, NCBI5, MSigDB6,7, REACTOME8, WikiPathways9. Enrichment was calculated relative to a set of background genes relevant for the experiment.

[2] = Measurement of PF04418948 in plasma and brain (LC/MS/MS); type: in vivo, mouse; details: aged (20-22 mo) mice, 2.5 mg/kg/d, 6 weeks, perfused brain
Description: Presence of PF04418948 was measured in aged (20-22 mo) mice treated with PF04418948 2.5 mg/kg/d for 6 weeks in plasma and perfused brain by LC/MS/MS at Quintara Discovery (Hayward, Calif., USA). In brief, brain samples were first homogenized in 2 volumes of ice-cold water, then further 2 fold diluted in blank plasma. An aliquot of 20 μL of each plasma sample or plasma diluted tissue homogenate was treated with 100 μL of acetonitrile containing internal standard (Terfenadine). The mixture was vortexed on a shaker for 15 minutes and subsequently centrifuged at 4000 rpm for 15 minutes. An aliquot of 70 μL of the extract was transferred to an injection plate and reconstituted in 70 μL of water for LC/MS/MS injection. Calibration standards and quality control samples were prepared by spiking the testing compound into blank plasma followed by processing with the samples.

aged mice [3] = assay: Chemokine and cytokine multiplex assay of plasma and hippocampus of treated mice; type: in vivo, mouse; details: aged (20-22 mo) mice, 2.5 mg/kg/d by gavage, 6 weeks
Description: PGE2, Butaprost, PF04418948 and Iloprost were purchased from Millipore-Sigma (Burlington, Mass., USA). ONO-AE248 and ONO-AE1-329 were gifts from Ono Pharmaceuticals (Osaka, Japan). Compound 52 (Charnwood Molecular Ltd, Loughborough, UK) and PF04418948 (Millipore-Sigma, Burlington, Mass., USA) were resuspended in 40% PEG (Sigma-Aldrich) and 60% of a 30% Kolliphor HS15 solution (Sigma-Aldrich), and administered orally at 10 mg/kg/d and 2.5 mg/kg/d, respectively. U-^13C-Glucose, U-^13C-Lactate, U-^13C-Glutamine, and U-^13C-Pyruvate were purchased from Cambridge Isotopes (Tewksbury, Mass., USA). HUSH-29 plasmids containing shRNAs to human GYS1 were purchased from Origene Technologies (Rockville, Md., USA). Human monocyte derived macrophages were incubated with 1640 Media with GlutaMAX+HEPES without sodium pyruvate (ThermoFisher, catolog No. 72400146). […]
Hippocampal lysates or mouse plasma were stored at −80° C. and cytokine analysis was carried out at the Human Immune Monitoring Core (Stanford University) or Eve Technologies (Calgary, Alberta, Canada) using Luminex mouse 39-plex kits and Human 71-plex kits. Plates were read using a Luminex LabMap200 instrument or a MSD Chemiluminescence instrument with a lower bound of 100 beads per sample per measured cytokine. […] Mean fluorescence intensity (MFI) was averaged over duplicate wells for each cytokine per sample on each plate. […]

[4] = tested on: human monocyte-derived macrophages (human MDMs); assay: Real-time oxygen consumption rate (OCR) and ECAR (Seahorse) in human MDMs; type: cell-based; details: human MDMs, dose response, 20 h
Description: Cells were plated at 1.8×10^6 cells per well in a Seahorse XF24 Cell Culture Microplate (Agilent). Cells were then treated with indicated inhibitors or agonists in each experiment for 20 h. Cells were washed twice with Agilent Seahorse XF Media (Agilent) supplemented with 1 mM pyruvate, 2 mM L-glutamine, and 10 mM D-glucose; a final volume of 525 μl was placed in each well. Cells were then incubated in a 0% CO2 chamber at 37° C. for 1 h before being placed into a Seahorse XFe24 Analyzer (Agilent). For OCR and ECAR mitostress test experiments, cells were treated with 1 μM oligomycin, 2 μM carbonyl cyanide p-trifluoromethoxyphenylhydrazone (FCCP), and 0.5 μM rotenone/antimycin (indicated by three black arrows in each seahorse trace). For mitoFlex Fuel test experiments, cells were treated with UK5099 (200 μM) and BPTES (200 μM)/Etomoxir (80 μM). A total of three OCR and pH measurements were taken after each compound was administered. All Seahorse experiments were repeated at least three times unless otherwise indicated. All OCR and ECAR data were normalized to cell number per well using CyQUANT (ThermoFisher Scientific, Waltham, Mass., USA).
Peripheral blood mononuclear cells from de-identified healthy donors (young<35 years old, aged>65 years old) were obtained from the Stanford Blood Center and transferred to 50 ml conical tubes. Samples were diluted with 20 ml PBS and layered onto 10 ml of Ficoll-Paque (GE Healthcare) using a Pasteur pipette. Tubes were centrifuged at 1,500 r.p.m. for 25 min without brake at 20° C. The mononuclear cell layer was transferred to a new 50 ml conical tube, resuspended in 50 ml 1×PBS and centrifuged at 1500 r.p.m. for 10 min, repeated twice. After centrifugation, monocytes were isolated using a Monocyte Isolation Kit, human (MACS; Miltenyi Biotech). Cells were then plated 10×10^6 per 10-cm petri dish and differentiated for 7 days in Roswell Park Memorial Institute (RPMI) media supplemented with 10% FBS, 1% penicillin-streptomycin, and 50 ng ml^−1 M-CSF (Peprotech).

[5] = aged mice, 2.5 mg/kg/d, 6 weeks

- brain level (whole brain lysates) [2]: not detected
SMILES: COc1ccc2cc(OCC3(C(=O)O)CN(C(=O)c4ccc(F)cc4)C3)ccc2c1 [PF-04418948]
- expression of glycolytic and TCA genes in peritoneal macrophages (aged mice [1]; aged (20-22 mo) mice, 2.5 mg/kg/d for 6 weeks): restores expression levels of glycolytic and TCA genes in aged mice
- age-related upregulation of pro-inflammatory gene transcripts and downregulation of glycolytic and TCA gene transcripts in macrophages (aged mice [1]; [5]): reciprocally reversed
- top differentially regulated chemokine and cytokine transcripts in peritoneal macrophages (aged mice [1]; [5]): shifts expression towards young macrophage levels
- transcriptome of peritoneal macrophages (clustering of 1449 genes, PCA) (aged mice [1]; young (3-4 mo) and aged (20-22 mo) mice, 2.5 mg/kg/d, 6 weeks, 2.5 mg/kg/day): cluster with young mice treated with vehicle or PF-04418948; also recorded: significant shift away from vehicle-treated aged mice toward young macrophages
- pro-inflammatory factors in blood and hippocampus (aged mice [3]): reduced levels of pro-inflammatory factors not only in blood but also in hippocampus
- ECAR (extracellular acidification rate, glycolysis) [4]: increased
- basal OCR (oxygen consumption) [4]: increased

Source: patent US20220048987A1, “METHOD OF TREATMENT TO PREVENT OR REVERSE AGE-ASSOCIATED INFLAMMATION, COGNITIVE DECLINE, AND NEURODEGENERATION” (The Board of Trustees of the Leland Stanford Junior …, priority 2020, published 2022)
